# From patent US20240173432A1, “Compositions and Methods for Treatment of Myotonic Dystrophy Type 1 with CRISPR/SluCas9” (Vertex Pharmaceuticals Incorporated, priority 2021, published 2024)
# Tested on: CTG repeat in the 3′ UTR of human DMPK gene
# Assay: Dual-cut screening: CTG repeat excision efficiency by loss-of-signal ddPCR
# Type: cell-based
# Settings: sgRNA pair; primary DM1 patient myoblasts; 3 μM DNA-PKi Compound 6 for 48 hours
# Method: RNPs were assembled with recombinant SluCas9 protein and chemically modified sgRNAs at a ratio of 1:3 (protein:sgRNA). For SINGLE-cut screening, RNP complexes were assembled with 30 pmol of SluCas9 and 90 pmol of sgRNA in P5 Primary Cell Nucleofector Solution (Lonza). After incubation at room temperature for 20 minutes, 10 μL of RNP complex were mixed with two hundred thousand of primary myoblasts resuspended in 10 μL of P5 Nucleofector Solution. For DOUBLE-cut screening, RNP complexes were first assembled for individual sgRNAs with 20 pmol of SluCas9 protein and 60 pmol of sgRNAs in 5 μL of P5 Nucleofector Solution. After incubation at room temperature for 20 minutes, the two RNP complexes (one for upstream sgRNA and one for downstream sgRNA) were mixed at 1:1 ratio and then further mixed with two hundred thousand of primary myoblasts resuspended in 10 μL of P5 Nucleofector Solution.
# The Nucleofector 96-well Shuttle System (Lonza) was used to deliver the SluCa9/sgRNA RNPs into primary DM1 patient myoblasts using the nucleofection program CM138. Following nucleofection, myoblasts from each well of nucleofection shuttle were split into six wells of the 96-well cell culture plate (Greiner, 655090) coated with matrigel. The first three wells were treated with DMSO for 48 hrs before changing to fresh myoblast growth medium, and the other three wells were treated with 3 μM of DNA-PKi Compound 6 for 48 hrs before changing to fresh myoblast growth medium. 72 hrs post nucleofection, two wells of DMSO-treated myoblasts and two wells of DNA-PKi-treated myoblasts from each nucleofection were harvested for genomic DNA extraction using the Kingfisher Flex purification system (Thermal Fisher), whereas one well of DMSO-treated myoblasts and one well of DNA-PKi-treated myoblasts were stained for RNA foci by FISH staining.
# The primers and probes of ddPCR are designed using the online primer design software Primer3Plus (http://www.bioinformatics.nl/cgi-bin/primer3plus/primer3plus.cgi). In some embodiments, two target primers/probe sets were used to detect CTG repeat excision, and a reference primers/probe set were used to amplify a region located in Exon 1 of human DMPK gene and to serve as a reference control for the target sets. The 24 μL of ddPCR reaction consists of 12 μL of Supermix for Probes (no dUTP) (Bio-Rad Laboratories), 1 μL of Reference primers mix (21.6 μM), 1 μL of Reference probe (6 μM), 1 μL of Target primers mix (21.6 μM), 1 μL of Target probe (6 μM), and 8 μL of sample genomic DNA. Droplets were generated using probe oil with the QX200 Droplet Generator (Bio-Rad Laboratories). Droplets were transferred to a 96-well PCR plate, sealed and cycled in a C1000 deep well Thermocycler (Bio-Rad Laboratories) under the following cycling protocol: 1 cycle at 95° C. for 10 min; 40 cycles of 94° C. for 30 see, and 58° C. for 1 min; 1 cycle at 98° C. for 10 min (for enzyme inactivation). The cycled plate was then transferred and read in the FAM and HEX channels using the Bio-Rad QX200 Droplet Reader (Bio-Rad Laboratories). ddPCR analysis is performed with the Bio-Rad QuantaSoft Pro Software.
# To assess the efficiency of SluCas9 sgRNA pairs for inducing CTG repeat excision, Dual-cut screening was performed in which individual SluCas9 sgRNAs and recombinant SluCas9 protein were assembled into ribonucleoprotein (RNP) and delivered into primary DM1 patient myoblasts. Nucleofected myoblasts were treated with either DMSO (vehicle) or 3 μM of DNA-dependent Protein Kinase Inhibitor (DNA-PKi) Compound 6 for 48 hours. 72 hours post-nucleofection, myoblasts were subjected to either genomic DNA isolation or RNA foci staining by fluorescence in situ hybridization (FISH).
# CRISPR repeat excision efficiency was assessed for each of the 88 pairs (FIG. 8A-B and Table 5). CTG repeat excision efficiency percentages are shown for vehicle (DMSO; white bars) and with DNA-PKi (black bars) (FIG. 8B and Table 5).
row,Substance,Excision efficiency (by ddPCR)
1,"SluU10 + SluD06 (guide 1 CCCGTTGGAAGACTGAGTGCCC; guide 2 CCAGGCTGAGGCCCTGACGTGG; guide RNA; listed as DNA, chemistry not fully specified)",63.05
2,"SluU10 + SluD14 (guide 1 CCCGTTGGAAGACTGAGTGCCC; guide 2 ATGGGCAAACTGCAGGCCTGGG; guide RNA; listed as DNA, chemistry not fully specified)",61.58
3,"SluU10 + SluD18 (guide 1 CCCGTTGGAAGACTGAGTGCCC; guide 2 TGGAGGATGGAACACGGACGGC; guide RNA; listed as DNA, chemistry not fully specified)",60.59
4,"SluU10 + SluD32 (guide 1 CCCGTTGGAAGACTGAGTGCCC; guide 2 CTTGTGCATGACGCCCTGCTCT; guide RNA; listed as DNA, chemistry not fully specified)",72.52
5,"SluU10 + SluD34 (guide 1 CCCGTTGGAAGACTGAGTGCCC; guide 2 CGCGCCAGACGCTCCCCAGAGC; guide RNA; listed as DNA, chemistry not fully specified)",68.59
6,"SluU10 + SluD48 (guide 1 CCCGTTGGAAGACTGAGTGCCC; guide 2 GAGAGCAGCGCAAGTGAGGAGG; guide RNA; listed as DNA, chemistry not fully specified)",62.29
7,"SluU10 + SluD56 (guide 1 CCCGTTGGAAGACTGAGTGCCC; guide 2 CCAGCCGGCTCCGCCCGCTTCG; guide RNA; listed as DNA, chemistry not fully specified)",54.92
8,"SluU10 + SluD68 (guide 1 CCCGTTGGAAGACTGAGTGCCC; guide 2 CCTGTAGCCTGTCAGCGAGTCG; guide RNA; listed as DNA, chemistry not fully specified)",61.29

# Same assay, conditions: sgRNA pair; primary DM1 patient myoblasts; vehicle (DMSO)
row,Substance,Excision efficiency by ddPCR (Vehicle)
1,"SluU10 + SluD06 (guide 1 CCCGTTGGAAGACTGAGTGCCC; guide 2 CCAGGCTGAGGCCCTGACGTGG; guide RNA; listed as DNA, chemistry not fully specified)",48.58
2,"SluU10 + SluD14 (guide 1 CCCGTTGGAAGACTGAGTGCCC; guide 2 ATGGGCAAACTGCAGGCCTGGG; guide RNA; listed as DNA, chemistry not fully specified)",43.14
3,"SluU10 + SluD18 (guide 1 CCCGTTGGAAGACTGAGTGCCC; guide 2 TGGAGGATGGAACACGGACGGC; guide RNA; listed as DNA, chemistry not fully specified)",51.55
4,"SluU10 + SluD32 (guide 1 CCCGTTGGAAGACTGAGTGCCC; guide 2 CTTGTGCATGACGCCCTGCTCT; guide RNA; listed as DNA, chemistry not fully specified)",48.62
5,"SluU10 + SluD34 (guide 1 CCCGTTGGAAGACTGAGTGCCC; guide 2 CGCGCCAGACGCTCCCCAGAGC; guide RNA; listed as DNA, chemistry not fully specified)",52.12
6,"SluU10 + SluD48 (guide 1 CCCGTTGGAAGACTGAGTGCCC; guide 2 GAGAGCAGCGCAAGTGAGGAGG; guide RNA; listed as DNA, chemistry not fully specified)",44.14
7,"SluU10 + SluD56 (guide 1 CCCGTTGGAAGACTGAGTGCCC; guide 2 CCAGCCGGCTCCGCCCGCTTCG; guide RNA; listed as DNA, chemistry not fully specified)",33.89
8,"SluU10 + SluD68 (guide 1 CCCGTTGGAAGACTGAGTGCCC; guide 2 CCTGTAGCCTGTCAGCGAGTCG; guide RNA; listed as DNA, chemistry not fully specified)",42.37

# Tested on: CUG foci in primary DM1 patient myoblasts
# Assay: Dual-cut screening: FISH staining of CUG RNA foci
# Type: cell-based, human
# Settings: sgRNA pair; primary DM1 patient myoblasts; 3 μM DNA-PKi Compound 6 for 48 hours
# Summary of the method: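 SluCas9 RNPs (protein:sgRNA 1:3; 20 pmol SluCas9 + 60 pmol sgRNA per guide, paired 1:1) nucleofected into primary DM1 patient myoblasts, then DMSO or 3 μM DNA-PKi Compound 6 for 48 h. At 72 h post-nucleofection cells fixed, FISH-stained with Cy3-PNA(CAG)5 probe plus anti-MBNL1 and Hoechst; % CUG foci-free nuclei by high-content confocal imaging.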
row,Substance,% of CUG foci free nuclei (DNA-PKi) [%]
1,"SluU10 + SluD06 (guide 1 CCCGTTGGAAGACTGAGTGCCC; guide 2 CCAGGCTGAGGCCCTGACGTGG; guide RNA; listed as DNA, chemistry not fully specified)",86.35
2,"SluU10 + SluD14 (guide 1 CCCGTTGGAAGACTGAGTGCCC; guide 2 ATGGGCAAACTGCAGGCCTGGG; guide RNA; listed as DNA, chemistry not fully specified)",84.04
3,"SluU10 + SluD18 (guide 1 CCCGTTGGAAGACTGAGTGCCC; guide 2 TGGAGGATGGAACACGGACGGC; guide RNA; listed as DNA, chemistry not fully specified)",89.08
4,"SluU10 + SluD32 (guide 1 CCCGTTGGAAGACTGAGTGCCC; guide 2 CTTGTGCATGACGCCCTGCTCT; guide RNA; listed as DNA, chemistry not fully specified)",90.08
5,"SluU10 + SluD34 (guide 1 CCCGTTGGAAGACTGAGTGCCC; guide 2 CGCGCCAGACGCTCCCCAGAGC; guide RNA; listed as DNA, chemistry not fully specified)",88.63
6,"SluU10 + SluD48 (guide 1 CCCGTTGGAAGACTGAGTGCCC; guide 2 GAGAGCAGCGCAAGTGAGGAGG; guide RNA; listed as DNA, chemistry not fully specified)",88.02
7,"SluU10 + SluD56 (guide 1 CCCGTTGGAAGACTGAGTGCCC; guide 2 CCAGCCGGCTCCGCCCGCTTCG; guide RNA; listed as DNA, chemistry not fully specified)",83.68
8,"SluU10 + SluD68 (guide 1 CCCGTTGGAAGACTGAGTGCCC; guide 2 CCTGTAGCCTGTCAGCGAGTCG; guide RNA; listed as DNA, chemistry not fully specified)",89.5

# Same assay, conditions: sgRNA pair; primary DM1 patient myoblasts; vehicle (DMSO)
row,Substance,% of CUG foci free nuclei (Vehicle) [%]
1,"SluU10 + SluD06 (guide 1 CCCGTTGGAAGACTGAGTGCCC; guide 2 CCAGGCTGAGGCCCTGACGTGG; guide RNA; listed as DNA, chemistry not fully specified)",61.37
2,"SluU10 + SluD14 (guide 1 CCCGTTGGAAGACTGAGTGCCC; guide 2 ATGGGCAAACTGCAGGCCTGGG; guide RNA; listed as DNA, chemistry not fully specified)",62.95
3,"SluU10 + SluD18 (guide 1 CCCGTTGGAAGACTGAGTGCCC; guide 2 TGGAGGATGGAACACGGACGGC; guide RNA; listed as DNA, chemistry not fully specified)",71.69
4,"SluU10 + SluD32 (guide 1 CCCGTTGGAAGACTGAGTGCCC; guide 2 CTTGTGCATGACGCCCTGCTCT; guide RNA; listed as DNA, chemistry not fully specified)",77.29
5,"SluU10 + SluD34 (guide 1 CCCGTTGGAAGACTGAGTGCCC; guide 2 CGCGCCAGACGCTCCCCAGAGC; guide RNA; listed as DNA, chemistry not fully specified)",80.9
6,"SluU10 + SluD48 (guide 1 CCCGTTGGAAGACTGAGTGCCC; guide 2 GAGAGCAGCGCAAGTGAGGAGG; guide RNA; listed as DNA, chemistry not fully specified)",69.11
7,"SluU10 + SluD56 (guide 1 CCCGTTGGAAGACTGAGTGCCC; guide 2 CCAGCCGGCTCCGCCCGCTTCG; guide RNA; listed as DNA, chemistry not fully specified)",49.83
8,"SluU10 + SluD68 (guide 1 CCCGTTGGAAGACTGAGTGCCC; guide 2 CCTGTAGCCTGTCAGCGAGTCG; guide RNA; listed as DNA, chemistry not fully specified)",68.15
